{
  "source": "ChEMBL document CHEMBL5154882",
  "about": "“Discovery of 4-Hydroxyquinazoline Derivatives as Small Molecular BET/PARP1 Inhibitors That Induce Defective Homologous Recombination and Lead to Synthetic Lethality for Triple-Negative Breast Cancer Therapy” (J Med Chem, 2022)",
  "key": {"[1]": {"assay": "Toxicity in BALB/c nude mouse xenografted with human MDA-MB-468 cells assessed as death at 40 to 80 mg/kg, ig administered daily for 16 days measured every 3 days", "assay_type": "organism-based", "conditions": "in vivo, po, 384 h, dose 40-80 mg/kg, time 16 day"}, "MDA-MB-468 [2]": {"tested_on": "MDA-MB-468", "assay": "Induction of apoptosis in human MDA-MB-468 cells assessed as late apoptotic cells at 20 uM incubated for 72 hrs by annexin V/propidium iodide staining-based flow cytometry analysis (reference value: 1.34%)", "assay_type": "functional"}, "[3]": {"assay": "Toxicity in BALB/c nude mouse xenografted with human MDA-MB-468 cells assessed as morphological changes in spleen at 80 mg/kg, ig administered daily for 16 days measured every 3 days by hematoxyin-eosin staining based analysis", "assay_type": "organism-based", "conditions": "in vivo, po, 384 h, time 16 day"}, "[4]": {"assay": "Toxicity in BALB/c nude mouse xenografted with human MDA-MB-468 cells assessed as morphological changes in kidney at 40 to 80 mg/kg, ig administered daily for 16 days measured every 3 days by hematoxyin-eosin staining based analysis", "assay_type": "organism-based", "conditions": "in vivo, po, 384 h, dose 40-80 mg/kg, time 16 day"}, "MDA-MB-468 [5]": {"tested_on": "MDA-MB-468", "assay": "Induction of apoptosis in human MDA-MB-468 cells assessed as early apoptotic cells at 5 uM incubated for 72 hrs by annexin V/propidium iodide staining-based flow cytometry analysis (reference value: 4.07%)", "assay_type": "functional"}, "MDA-MB-468 [6]": {"tested_on": "MDA-MB-468", "assay": "Cell cycle arrest in human MDA-MB-468 cells assessed as accumulation at G2/M phase at 5 uM incubated for 72 hrs by propidium iodide staining-based flow cytometry analysis (reference value: 16.1%)", "assay_type": "functional"}, "MDA-MB-468 [7]": {"tested_on": "MDA-MB-468", "assay": "Antitumor activity against human MDA-MB-468 cells xenografted in BALB/c nude mouse model assessed as tumor growth inhibition at 40 to 80 mg/kg, ig administered daily for 16 days measured every 3 days relative to control", "assay_type": "functional", "conditions": "dose 40-80 mg/kg, time 16 day"}, "MDA-MB-231 [8]": {"tested_on": "MDA-MB-231", "assay": "Antitumor activity against human MDA-MB-231 cells xenografted in BALB/c nude mouse assessed as reduction in PAR expression at 40 to 80 mg/kg incubated for 30 to 40 mins by immunohistochemical analysis", "assay_type": "functional, organism-based", "conditions": "dose 40-80 mg/kg, time 30-40 min"}, "MDA-MB-468 [9]": {"tested_on": "MDA-MB-468", "assay": "Induction of apoptosis in human MDA-MB-468 cells assessed as downregulation of Bcl-2 protein level at 20 uM incubated for 72 hrs by Western blot analysis", "assay_type": "functional, cell-based"}, "MDA-MB-231 [10]": {"tested_on": "MDA-MB-231", "assay": "Antitumor activity against human MDA-MB-231 cells xenografted in BALB/c nude mouse assessed as downregulation of BRD4 downstream protein at 40 mg/kg by Western blot analysis", "assay_type": "functional, organism-based"}, "MDA-MB-468 [11]": {"tested_on": "MDA-MB-468", "assay": "Antiproliferative activity against human MDA-MB-468 cells assessed as reduction in cell viability incubated for 72 hrs by MTT assay", "assay_type": "functional, cell-based", "conditions": "MDA-MB-468, 72 h"}, "[12]": {"assay": "Toxicity in BALB/c nude mouse xenografted with human MDA-MB-468 cells assessed as death at 80 mg/kg, ig administered daily for 16 days measured every 3 days", "assay_type": "organism-based", "conditions": "in vivo, po, 384 h, time 16 day"}, "MDA-MB-468 [13]": {"tested_on": "MDA-MB-468", "assay": "Inhibition of homologous recombinant repair in human MDA-MB-468 cells assessed as down-regulation of CtlP expression at 5 to 20 uM in by Western blot analysis", "assay_type": "functional, cell-based", "conditions": "dose 5-20 µM"}, "[14]": {"assay": "Toxicity in BALB/c nude mouse xenografted with human MDA-MB-468 cells assessed as morphological changes in heart at 80 mg/kg, ig administered daily for 16 days measured every 3 days by hematoxyin-eosin staining based analysis", "assay_type": "organism-based", "conditions": "in vivo, po, 384 h, time 16 day"}, "[15]": {"assay": "Toxicity in BALB/c nude mouse xenografted with human MDA-MB-468 cells assessed as change in body weight at 40 to 80 mg/kg, ig administered daily for 16 days measured every 3 days", "assay_type": "organism-based", "conditions": "in vivo, po, 384 h, dose 40-80 mg/kg, time 16 day"}, "[16]": {"assay": "Toxicity in BALB/c nude mouse xenografted with human MDA-MB-468 cells assessed as morphological changes in spleen at 40 to 80 mg/kg, ig administered daily for 16 days measured every 3 days by hematoxyin-eosin staining based analysis", "assay_type": "organism-based", "conditions": "in vivo, po, 384 h, dose 40-80 mg/kg, time 16 day"}, "[17]": {"assay": "Toxicity in BALB/c nude mouse xenografted with human MDA-MB-468 cells assessed as morphological changes in liver at 80 mg/kg, ig administered daily for 16 days measured every 3 days by hematoxyin-eosin staining based analysis", "assay_type": "organism-based", "conditions": "in vivo, po, 384 h, time 16 day"}, "MDA-MB-231 [18]": {"tested_on": "MDA-MB-231", "assay": "Antitumor activity against human MDA-MB-231 cells xenografted in BALB/c nude mouse assessed as downregulation of PAR at 80 mg/kg by Western blot analysis", "assay_type": "functional, organism-based"}, "MDA-MB-231 [19]": {"tested_on": "MDA-MB-231", "assay": "Antitumor activity against human MDA-MB-231 cells xenografted in BALB/c nude mouse assessed as reduction in Rad51 expression at 40 to 80 mg/kg incubated for 30 to 40 mins by immunohistochemical analysis", "assay_type": "functional, organism-based", "conditions": "dose 40-80 mg/kg, time 30-40 min"}, "[20]": {"assay": "Apparent volume of distribution in Sprague-Dawley rat at 1 mg/kg, iv", "assay_type": "ADME, organism-based", "conditions": "in vivo"}, "MDA-MB-231 [21]": {"tested_on": "MDA-MB-231", "assay": "Inhibition of homologous recombinant repair in human MDA-MB-231 cells assessed as down-regulation of Mre11 expression at 5 to 20 uM in by Western blot analysis", "assay_type": "functional, cell-based", "conditions": "dose 5-20 µM"}, "[22]": {"assay": "Cmax in Sprague-Dawley rat at 10 mg/kg, po", "assay_type": "ADME, organism-based", "design": "dose 10 mg/kg, route po", "conditions": "in vivo"}, "MDA-MB-468 [23]": {"tested_on": "MDA-MB-468", "assay": "Induction of apoptosis in human MDA-MB-468 cells assessed as late apoptotic cells at 5 uM incubated for 72 hrs by annexin V/propidium iodide staining-based flow cytometry analysis (reference value: 1.34%)", "assay_type": "functional"}, "MDA-MB-231 [24]": {"tested_on": "MDA-MB-231", "assay": "Antitumor activity against human MDA-MB-231 cells xenografted in BALB/c nude mouse assessed as downregulation of […] downstream protein at 40 mg/kg by Western blot analysis", "assay_type": "functional, organism-based"}, "MDA-MB-468 [25]": {"tested_on": "MDA-MB-468", "assay": "Induction of apoptosis in human MDA-MB-468 cells assessed as early apoptotic cells at 10 uM incubated for 72 hrs by annexin V/propidium iodide staining-based flow cytometry analysis (reference value: 4.07%)", "assay_type": "functional"}, "[26]": {"assay": "Toxicity in BALB/c nude mouse xenografted with human MDA-MB-468 cells assessed as morphological changes in lung at 40 to 80 mg/kg, ig administered daily for 16 days measured every 3 days by hematoxyin-eosin staining based analysis", "assay_type": "organism-based", "conditions": "in vivo, po, 384 h, dose 40-80 mg/kg, time 16 day"}, "MDA-MB-231 [27]": {"tested_on": "MDA-MB-231", "assay": "Antitumor activity against human MDA-MB-231 cells xenografted in BALB/c nude mouse assessed as reduction in c-Myc expression at 40 to 80 mg/kg incubated for 30 to 40 mins by immunohistochemical analysis", "assay_type": "functional, organism-based", "conditions": "dose 40-80 mg/kg, time 30-40 min"}, "[28]": {"assay": "Toxicity in BALB/c nude mouse xenografted with human MDA-MB-468 cells assessed as morphological changes in heart at 40 to 80 mg/kg, ig administered daily for 16 days measured every 3 days by hematoxyin-eosin staining based analysis", "assay_type": "organism-based", "conditions": "in vivo, po, 384 h, dose 40-80 mg/kg, time 16 day"}, "MDA-MB-468 [29]": {"tested_on": "MDA-MB-468", "assay": "Downregulation of c-Myc expression level in human MDA-MB-468 cells by Western blot analysis", "assay_type": "functional, cell-based", "conditions": "dose 5-20 µM, DDE = dose-dependent effect"}, "[30]": {"assay": "Half life in Sprague-Dawley rat at 10 mg/kg, po", "assay_type": "ADME, organism-based", "conditions": "in vivo"}, "MDA-MB-231 [31]": {"tested_on": "MDA-MB-231", "assay": "Induction of DNA damage in human MDA-MB-231 cells assessed as increase in tail DNA measured at 5 to 20 uM after 3 days by comet assay", "assay_type": "functional, cell-based", "conditions": "dose 5-20 µM, time 3.0 day"}, "[32]": {"assay": "AUC (0 to infinity) in Sprague-Dawley rat at 1 mg/kg, iv", "assay_type": "ADME, organism-based", "design": "time infinity, dose 1 mg/kg, route iv", "conditions": "in vivo"}, "[33]": {"assay": "Toxicity in BALB/c nude mouse xenografted with human MDA-MB-468 cells assessed as morphological changes in kidney at 80 mg/kg, ig administered daily for 16 days measured every 3 days by hematoxyin-eosin staining based analysis", "assay_type": "organism-based", "conditions": "in vivo, po, 384 h, time 16 day"}},
  "note": "The source made the active and inactive calls. The rule behind the calls is not given here.",
  "data": [
    {"compound": "COc1cc(OC)c2c(=O)[nH]c(-c3cccc(Cc4n[nH]c(=O)c5ccccc45)c3)nc2c1", "values": [
      {"measurement": "Activity", "setting": "[1]", "result": "Non-Toxic"},
      {"measurement": "Activity", "setting": "MDA-MB-468 [2]", "result": 6.18, "unit": "%"},
      {"measurement": "Activity", "setting": "[3]", "result": "Non-Toxic"},
      {"measurement": "Activity", "setting": "[4]", "result": "Non-Toxic"},
      {"measurement": "Activity", "setting": "MDA-MB-468 [5]", "result": 21.47, "unit": "%"},
      {"measurement": "Activity", "setting": "MDA-MB-468 [6]", "result": 16.6, "unit": "%"},
      {"measurement": "TGI", "setting": "MDA-MB-468 [7]", "result": 68.7, "unit": "%"},
      {"measurement": "Activity", "setting": "MDA-MB-231 [8]", "result": "Active"},
      {"measurement": "Activity", "setting": "MDA-MB-468 [9]", "result": "Active"},
      {"measurement": "Activity", "setting": "MDA-MB-231 [10]", "result": "Active"},
      {"measurement": "IC50", "setting": "MDA-MB-468 [11]", "result": 3.01, "unit": "µM"},
      {"measurement": "Activity", "setting": "[12]", "result": "Non-Toxic"},
      {"measurement": "inhibition", "setting": "MDA-MB-468 [13]", "result": "Active"},
      {"measurement": "Activity", "setting": "[14]", "result": "Non-Toxic"},
      {"measurement": "Activity", "setting": "[15]", "result": "Non-Toxic"},
      {"measurement": "Activity", "setting": "[16]", "result": "Non-Toxic"},
      {"measurement": "Activity", "setting": "[17]", "result": "Non-Toxic"},
      {"measurement": "Activity", "setting": "MDA-MB-231 [18]", "result": "Active"},
      {"measurement": "Activity", "setting": "MDA-MB-231 [19]", "result": "Active"},
      {"measurement": "Vz", "setting": "[20]", "result": 21.1, "unit": "L/kg"},
      {"measurement": "Activity", "setting": "MDA-MB-231 [21]", "result": "Active"},
      {"measurement": "Cmax", "setting": "[22]", "result": 242, "unit": "ng/mL"},
      {"measurement": "Activity", "setting": "MDA-MB-468 [23]", "result": 6.08, "unit": "%"},
      {"measurement": "Activity", "setting": "MDA-MB-231 [24]", "result": "Active"},
      {"measurement": "Activity", "setting": "MDA-MB-468 [25]", "result": 25.61, "unit": "%"},
      {"measurement": "Activity", "setting": "[26]", "result": "Non-Toxic"},
      {"measurement": "Activity", "setting": "MDA-MB-231 [27]", "result": "Active"},
      {"measurement": "Activity", "setting": "[28]", "result": "Non-Toxic"},
      {"measurement": "Activity", "setting": "MDA-MB-468 [29]", "result": "Dde"},
      {"measurement": "half-life", "setting": "[30]", "result": 3.33, "unit": "h"},
      {"measurement": "Activity", "setting": "MDA-MB-231 [31]", "result": "Active"},
      {"measurement": "AUC(0-inf)", "setting": "[32]", "result": 642, "unit": "ng·h/mL"},
      {"measurement": "Activity", "setting": "[33]", "result": "Non-Toxic"}
    ]}
  ]
}
